Laboratory results reported in patent US10761087B2, “Choroidal neovascularization suppressor or drusen formation suppressor, and method for assessing or screening for same” (Link Genomics, Inc., priority 2015, dated 2020).
Where two headings read alike, the source gives them in different places.

Tests used:
Assay type in all cases: cell-based, human
RPE cells (ARPE-19) = assay: Focus (drusen-like structure) formation suppression in EMT induction model of RPE cells; conditions: for Suppression of drusen-like structure formed in the RPE cell model: FIG. 35 to 39; for IC50: Homo sapiens
Procedure: RPE cells (ARPE-19) were seeded on a plate, and incubated for 5 days at 37° C. […] As a control of EMT induction, a sample to which a compound to be assessed (test drug) is not added was used. After 48 hours from EMT induction, the cells were fixed by treating with a 4% paraformaldehyde solution for 30 minutes at room temperature, and then washed three times with PBS. The cells were treated with a 0.2% Triton-X/PBS solution for 5 minutes, and washed three times with PBS. […] The fluorescent-stained cells were imaged by using an Image Express Micro (available from Molecular Devices), and digitized by using a MetaXpress2.0 (available from Molecular Devices). By analyzing the degree of formation of Focus (Focus level) from the numerical data, a Focus formation suppressing rate was calculated according to the following Formula 1 on the basis of the numerical value at the time of no addition of a compound, and the EMT suppressive effect in each compound was verified. The degree of formation of Focus (Focus level) was determined according to the number and the volume of Focus as indexes.
IC50 in the table was calculated using the following Formula 2.
A: Higher concentration sandwiching 50%
B: Lower concentration sandwiching 50%
C: Inhibition rate at lower concentration sandwiching 50%
D: Inhibition rate at higher concentration sandwiching 50%
RPE cells (ARPE-19) were seeded on a plate, and incubated for 5 days at 37° C. […] As a control of EMT induction, a sample to which a compound to be assessed (test drug) is not added was used. The cells after observation were fixed by treating with a 4% paraformaldehyde solution for 30 minutes at room temperature, and then washed three times with PBS. The cells were treated with a 0.2% Triton-X/PBS solution for 5 minutes, and washed three times with PBS. […] The fluorescent-stained cells were imaged by using an Image Express Micro (available from Molecular Devices), and digitized by using a MetaXpress2.0 (available from Molecular Devices). By analyzing the degree of formation of Focus from the numerical data, a Focus formation suppressing rate was calculated on the basis of the case without addition of a compound and the case without EMT induction, and the EMT suppressive effect in each compound was verified. […] After washing three times with methanol, the cells were dried for 3 hours at room temperature. The dried cells were observed under a microscope.

VEGF = assay: Change in expression of VEGF mRNA (real-time PCR) in EMT-induced RPE cells; conditions: EMT-induced ARPE-19, 48 hours, compound at Cmax, ½ of Cmax or ¼ of Cmax
Procedure: (§1) RPE cells (ARPE-19) were seeded on a plate, and incubated for 5 days at 37° C. […] Each compound was added in a concentration of Cmax, ½ of Cmax or ¼ of Cmax. As a control, a sample to which a compound to be assessed (test drug) is not added was used. The collected cells were washed with PBS, and 350 μL of an RLT buffer was added to prepare a lysate for RNA extraction. Total RNA was extracted from the lysate using an RNeasy Micro kit (QIAGEN, #74004), and from 2 μg of the obtained RNA, cDNA was prepared using a SuperScript III First-Strand Synthesis SuperMix for qRT-PCR (Invitrogen, #11752-250). Using 50 ng of the obtained cDNA as a template, a real-time PCR (ABI Prism 7500 Sequence Detection System) was conducted according to the manufacturer's protocol, and expression of mRNA of each gene was quantified. Specific primers for respective genes were purchased from Invitrogen. Ct (Threshold Cycle) value of each gene was calculated as a percentage to a non-treated sample after normalization by endogenous control. For each result, a significant test (Student t test) was conducted, and when p<0.05, the result was marked with “*”, and when p<0.01, the result was marked with “**”.
The results are shown in FIG. 16 or FIG. 17, respectively.
The VEGF suppressive effect was assessed using the cell model as described above in the same manner as in Test example 2-3. The results are shown in FIG. 18 to FIG. 20, respectively.

[1] = test system: EMT markers (mesenchymal markers, ECM) in RPE cells (ARPE-19); assay: Change in expression of EMT markers (real-time PCR) in EMT-induced RPE cells; conditions: EMT-induced ARPE-19, 48 hours; for Enhancement of expression of Fibronectin, Snail and vimentin (mesenchymal markers): compound at Cmax, ½ of Cmax or ¼ of Cmax; for EMT suppression (FIG. 3 to FIG. 7) / Expression of EMT markers other than the ten common markers / Expression of Snail, Slug, CDH3, MMP1, MMP7, COL5A3, COL6A3, LAMC2, HMMR, TNC: oxaprozin 300 μM, epalrestat 30 μM, zafirlukast 3 μM, amlexanox 30 μM, zaltoprofen 30 μM
Procedure: RPE cells (ARPE-19) were seeded on a plate, and incubated for 5 days at 37° C. For the RPE cells, EMT was induced in the conditions described in Test example 1-1, and respective compounds (oxaprozin, epalrestat, zafirlukast, amlexanox, zaltoprofen) were added simultaneously, and the cells were collected after 48 hours from induction of EMT. As a control, a sample to which a compound to be assessed (test drug) is not added was used. The collected cells were washed with PBS, and 350 μL of an RLT buffer was added to prepare a lysate for RNA extraction. The respective compounds were used in the following concentrations. Oxaprozin: 300 μM, epalrestat: 30 μM, zafirlukast: 3 μM, amlexanox: 30 μM, zaltoprofen: 30 μM. Total RNA was extracted from the lysate using an RNeasy Micro kit (QIAGEN, #74004), and from 2 μg of the obtained RNA, cDNA was prepared using a SuperScript III First-Strand Synthesis SuperMix for qRT-PCR (Invitrogen, #11752-250). Using 50 ng of the obtained cDNA as a template, a real-time PCR (ABI Prism 7500 Sequence Detection System) was conducted according to the manufacturer's protocol, and expression of mRNA of each gene was quantified. Specific primers for respective genes were purchased from Invitrogen. Ct (Threshold Cycle) value of each gene was calculated as a percentage to a non-treated sample after normalization by endogenous control.
Five compounds (flufenamic acid aluminum (addition concentration: 28 μM (Cmax)), mefenamic acid (addition concentration: 39 μm (Cmax)), sulindac (addition concentration: 100 μM), tiaprofenic acid (addition concentration: 1000 μM), and seratrodast (addition concentration: 31 μM (Cmax))) were assessed for change in expression of EMT markers in the same manner as in Test example 2-1. The results are shown in FIG. 8 to FIG. 12, respectively.
as §1
RPE cells (ARPE-19) were seeded on a plate, and incubated for 5 days at 37° C. For the RPE cells, EMT was induced in the conditions described in Test example 5-1, and the five representative compounds (oxaprozin, epalrestat, zafirlukast, amlexanox, zaltoprofen) were added simultaneously, and the cells were collected after 48 hours from induction of EMT. As a control, a sample to which a compound to be assessed (test drug) is not added was used. The collected cells were washed with PBS, and 350 μL of an RLT buffer was added to prepare a lysate for RNA extraction. Total RNA was extracted from the lysate using an RNeasy Micro kit (QIAGEN, # 74004), and from 2 μg of the obtained RNA, cDNA was prepared using a SuperScript III First-Strand Synthesis SuperMix for qRT-PCR (Invitrogen, # 11752-250). […]

[2] = Table 1, EMT-induced ARPE-19, compound added simultaneously, 48 hours, read-out: IC50 (Focus formation suppressing rate, EMT suppressive effect)
[3] = Test example 7, EMT-induced ARPE-19, 48 hours, read-out: IC50 values in the drusen-like structure suppressing tests

SMILES	Suppression of drusen-like structure formed in the RPE cell model (RPE cells (ARPE-19); EMT-induced ARPE-19, 48 hours)	IC50 (RPE cells (ARPE-19); [2])	IC50 (RPE cells (ARPE-19); [3])	Enhancement of VEGF mRNA expression by EMT induction (VEGF)	Enhancement of VEGF mRNA expression by EMT induction (VEGF; listed as oxaprozin)	Enhancement of expression of Fibronectin, Snail and vimentin (mesenchymal markers) [1]	EMT suppression (FIG. 3 to FIG. 7) [1]	Expression of EMT markers other than the ten common markers [1]	Expression of Snail, Slug, CDH3, MMP1, MMP7, COL5A3, COL6A3, LAMC2, HMMR, TNC [1]	Enhancement of VEGF mRNA expression by EMT induction (VEGF; listed as zaltoprofen)
O=C(O)CCc1nc(-c2ccccc2)c(-c2ccccc2)o1 [Oxaprozin, oxaprozin]	suppresses a drusen-like structure formed in the RPE cell model in a concentration-dependent manner	61 µM	61 µM	suppressed enhancement of VEGF expression in a concentration dependent manner	suppress enhancement of mRNA expression of VEGF	suppressed enhancement of expression of these in a concentration dependent manner	significantly suppress EMT	decrease in expression was observed in ZEB2, MMP3, COL1A1, COL1A2, CSPG4, and SRGN	suppressed expression	
CC(C(=O)O)c1ccc2c(c1)CC(=O)c1ccccc1S2 (stereo not drawn) [Zaltoprofen, zaltoprofen]	suppresses a drusen-like structure formed in the RPE cell model in a concentration-dependent manner	16.5 µM	16.5 µM	suppressed enhancement of VEGF expression in a concentration dependent manner		suppressed enhancement of expression of these in a concentration dependent manner	significantly suppress EMT	decrease in expression was observed in ZEB2, FN1, COL13A1, and CSPG4	suppressed expression	suppress enhancement of mRNA expression of VEGF
